In article PMC7232676, “Fragment-Based Design of Mycobacterium tuberculosis InhA Inhibitors” (Journal of Medicinal Chemistry, 2020):
Where two headings read alike, the source gives them in different places.

Key:
[1] = biological target: T1, InhA (Mycobacterium tuberculosis, UniProt P9WGR1); assay: InhA enzymatic assay (NADH oxidation at 340 nm, 2-trans-octanoyl-CoA substrate); format: biochemical; settings: for IC50: average of three experiments; for LE (ligand efficiency): LE = (1.37 × pIC50)/HA
Procedure: The identified fragment hits were further evaluated by an InhA enzymatic assay using 2-trans-octanoyl-CoA as a substrate.[22]
The carboxylic acid in fragment 1 (P1) was replaced by an isosteric sulfonamide as a linker to synthesize compound 6 (Figure 2b). Docking experiments with Glide XP[23] […] All the synthesized compounds were tested at a concentration of 100 μM using the InhA enzymatic assay.
InhA activity was followed by a colorimetric assay that measured the oxidation of NADH at 340 nm in the presence of 2-trans-octanoyl-CoA as described before in a buffer that contained 30 mM PIPES, pH 7.5, 50 mM NaCl, 0.1 mM EDTA, and 100 nM InhA.[26] This was preincubated for 10 min at room temperature with 0.25 mM NADH and varying concentrations of the compounds with 1% (v/v) DMSO in a 150 μL reaction volume. The reaction was started by the addition of 2-trans-octanoyl-CoA at a final concentration of 1.5 mM, prepared as described previously.[22] Reactions were followed for 20 min using a plate reader (CLARIOstar, BMG LABTECH).

[2] = biological target: T1, InhA; assay: Differential scanning fluorimetry (fluorescence-based thermal-shift assay); format: binding; settings: for ΔTm (thermal shift of InhA): fragments 5 mM, InhA 10 μM, NAD+ 1 mM
Procedure: Differential scanning fluorimetry (DSF) was used to screen an in-house library of 800 rule-of-three-compliant fragments. A saturating concentration of the cofactor in oxidized form (1 mM NAD^+) was used in all the experiments to ensure that the cofactor binding site would be occupied by NAD^+ and that fragments would not bind there. […] Upon screening of the fragment library, a hit was defined where the melting point was increased by at least +3 °C at a concentration of 5 mM (Figure 1a).
The substrate binding regions of InhA are divided into three sites: site I, site II, and site III.
Differential scanning fluorimetry was used to screen a library of 800 fragments. The assay was performed in a 96 well plate format using a CFX Connect (Bio-Rad). Each well contained a solution of 10 μM InhA, 1 mM NAD^+, HEPES (50 mM), NaCl (150 mM), pH 7.5, 5× Sypro Orange, 5% DMSO, and fragments at 5 mM. […] Controls were made in quadruplicates for all the experiments.

[3] = system: M. tuberculosis H37Ra; assay: Growth inhibition of M. tuberculosis H37Ra, 48 h cultivation; format: cell-based, Mycobacterium tuberculosis; settings: for inhibition at 200 µM: 200 μM compound in the media, 48 h cultivation
Procedure: (§1) Further analysis of the effect on the synthesis of mycolic acids by metabolic labeling[24],[25] of the model strain M. tuberculosis H37Ra with ^14C acetate was also explored. A 48 h cultivation in the presence of 200 μM of the compounds in the media led to 84% growth inhibition for compound 19; 40% and 33% growth inhibition for compounds 14 and 23, respectively; 38% growth inhibition for compound 24 and isoniazid; 23% growth inhibition for compounds 25 and 26.
The culture of M. tuberculosis H37Ra was grown statically at 37 °C in Middlebrook 7H9 broth (Difco) supplemented with albumin–dextrose–catalase and 0.05% Tween 80. When the culture reached the OD600nm value of 0.290, it was divided into 10 mL aliquots and tested compounds dissolved in DMSO were added at 200 μM final concentrations, while isoniazid that served as a control inhibitor was at 40 μM. The final concentration of DMSO in each culture was at 1%. After 24 h of cultivation with shaking (120 rpm) in the presence of tested inhibitors, ^14C acetate (specific activity of 106 mCi/mmol) was added at a final concentration of 0.5 μCi/mL and the cells were cultivated for the next 24 h.

[4] = system: synthesis of mycolic acids in M. tuberculosis H37Ra; assay: Metabolic labeling with 14C acetate, TLC of FAME/MAME (mycolic acid synthesis); format: cell-based, Mycobacterium tuberculosis; settings: isoniazid control at 40 μM, 14C acetate labeling
Procedure: as §1
Figure 5 (A) TLC of the metabolic labeling experiments of M. tuberculosis H37Ra with ^14C acetate treated with the compounds 14, 19, and 23–26 for the analysis of mycolic acid inhibition. Fatty acid methyl esters, FAME; mycolic acid methyl esters, MAME; isoniazid, INH. (B) TLC of the metabolic labeling experiments of M. tuberculosis H37Ra with ^14C acetate treated with the compounds 14, 19, and 23–26 for the analysis of the lipid inhibition. Trehalose monomycolates, TMM; trehalose dimycolates, TDM; phosphatidylethanolamine, PE; cardiolipin, CL; isoniazid, INH.
The culture of M. tuberculosis H37Ra was grown statically at 37 °C in Middlebrook 7H9 broth (Difco) supplemented with albumin–dextrose–catalase and 0.05% Tween 80. […]
Fatty acid methyl esters (FAMEs) and mycolic acids methyl esters (MAMEs) were prepared from whole cells harvested from 4 mL culture aliquots as previously described.[32] […] 3× and detected by autoradiography.

[5] = 100 μM compound, read-out: Inh % (inhibition percentage of InhA)
[6] = supplementary CSV, read-out: % inhibition
[7] = Mycobacterium tuberculosis, H37RA

T1 sequence (P9WGR1 whole entry, looked up, the tested form may be a part): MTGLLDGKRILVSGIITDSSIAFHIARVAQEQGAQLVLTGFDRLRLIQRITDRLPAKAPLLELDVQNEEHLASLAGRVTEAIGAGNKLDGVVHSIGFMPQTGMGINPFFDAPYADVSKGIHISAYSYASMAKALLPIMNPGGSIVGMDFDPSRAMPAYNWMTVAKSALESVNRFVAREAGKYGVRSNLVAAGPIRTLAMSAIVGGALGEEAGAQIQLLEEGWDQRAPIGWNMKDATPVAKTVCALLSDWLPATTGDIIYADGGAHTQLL

Row | Molecule | inhibition at 100 µM [1, 5] | inhibition at 100 µM [1, 6] | other results
1 | COc1ccc(NS(=O)(=O)/C=C/c2cccc(C(F)(F)F)c2)cc1 [compound 12, (E)-N-(4-Methoxyphenyl)-2-(3-(trifluoromethyl)phenyl)ethene-1-sulfonamide] | 15% | 15% | 
2 | O=S(=O)(/C=C/c1cccc(C(F)(F)F)c1)Nc1cccnc1 [compound 8, (E)-N-(Pyridin-3-yl)-2-(3-(trifluoromethyl)phenyl)ethene-1-sulfonamide] | 17% | 17% | 
3 | Nc1ccc(NS(=O)(=O)/C=C/c2cccc(C(F)(F)F)c2)cc1 [compound 11, (E)-N-(4-Aminophenyl)-2-(3-(trifluoromethyl)phenyl)ethene-1-sulfonamide] | 6% | 6% | 
4 | CC(C)(C)OC(=O)Nc1ccc(NS(=O)(=O)/C=C/c2cccc(C(F)(F)F)c2)cc1 [compound 10, tert-Butyl-(E)-(4-((2-(3-(trifluoromethyl)phenyl)vinyl)sulfonamido)phenyl)carbamate] | 11% | 11% | 
5 | COC(=O)c1ccc(NS(=O)(=O)/C=C/c2cccc(C(F)(F)F)c2)cc1 [compound 9, Methyl-(E)-4-((2-(3-(trifluoromethyl)phenyl)vinyl)sulfonamido)benzoate] | 0% | 0% | 
6 | O=C(O)/C=C/c1cccc(C(F)(F)F)c1 [compound 1, (E)-3-(3-(trifluoromethyl)phenyl)acrylic acid] |  |  | DTm [2]: 3.2 oC; Inhibition of InhA ([1]; 2 mM fragment, triplicate): 0%
7 | O=S(=O)(/C=C/c1cccc(C(F)(F)F)c1)NC1CCNCC1 [compound 7, (E)-N-(Piperidin-4-yl)-2-(3-(trifluoromethyl)phenyl)ethene-1-sulfonamide] | 15% | 15% | 
8 | NCc1cccc(NS(=O)(=O)c2cc3ccccc3o2)c1 [compound 26, N-(3-(Aminomethyl)phenyl)benzofuran-2-sulfonamide] |  | 66% | inhibition at 200 µM [3, 7]: 23%; inhibition at 100 µM ([1]; read-out: Inh % (inhibition percentage of InhA)): 66%
9 | O=C(O)c1ccccc1-n1cccn1 [compound 5, 2-(1H-pyrazol-1-yl)benzoic acid] |  |  | DTm [2]: 6 oC; ΔTm (thermal shift of InhA) [2]: +6.0 °C
10 | COC(=O)Cc1ccc(NS(=O)(=O)/C=C/c2cccc(C(F)(F)F)c2)cc1 [compound 13, Methyl-(E)-2-(4-((2-(3-(trifluoromethyl)phenyl)vinyl)sulfonamido)phenyl)acetate] | 24% | 24% | 
11 | CNCc1ccc(NS(=O)(=O)/C=C/c2cccc(C(F)(F)F)c2)cc1 [compound 15, (E)-N-(4-((Methylamino)methyl)phenyl)-2-(3-(trifluoromethyl)phenyl)ethene-1-sulfonamide] | 0% | 0% | 
12 | Cc1c(S(=O)(=O)Nc2cccc(CN)c2)sc2ccc(Cl)cc12 [compound 23, N-(3-(Aminomethyl)phenyl)-5-chloro-3-methylbenzo[b]thiophene-2-sulfonamide] | > 90% | > 90% | activity against M. tuberculosis [3]: inactive; inhibition at 200 µM [3, 7]: 33%
13 | O=C(O)CCc1cccc(Cl)c1 [compound 4, 3-(3-chlorophenyl)propanoic acid] |  |  | DTm [2]: 3 oC; ΔTm (thermal shift of InhA) [2]: +3.0 °C
14 | O=C(O)c1cc2ccccc2cc1O [compound 3, 3-hydroxy-2-naphthoic acid] |  |  | DTm [2]: 4.2 oC; ΔTm (thermal shift of InhA) [2]: +4.2 °C
15 | CC(C)(C)c1ccc(S(=O)(=O)Nc2cccc(CN)c2)cc1 [compound 21, N-(3-(Aminomethyl)phenyl)-4-(tert-butyl)benzenesulfonamide] | 40% | 40% | 
16 | NCc1cccc(NS(=O)(=O)CCc2cccc3ccccc23)c1 [compound 22, N-(3-(Aminomethyl)phenyl)-2-(naphthalen-1-yl)ethane-1-sulfonamide] | 17% | 17% | 
17 | O=S(=O)(/C=C/c1cccc(C(F)(F)F)c1)Nc1ccc2c(c1)CNCC2 [compound 20, (E)-N-(1,2,3,4-Tetrahydroisoquinolin-7-yl)-2-(3-(trifluoromethyl)phenyl)ethene-1-sulfonamide] | 0% | 0% | 
18 | O=C(O)c1ccccc1C(=O)c1ccc(Cl)c([N+](=O)[O-])c1 [compound 2, 2-(4-chloro-3-nitrobenzoyl)benzoic acid] |  |  | DTm [2]: 4.2 oC; ΔTm (thermal shift of InhA) [2]: +4.2 °C
19 | O=S(=O)(/C=C/c1cccc(C(F)(F)F)c1)Nc1ccccc1 [compound 6, (E)-N-Phenyl-2-(3-(trifluoromethyl)phenyl)ethene-1-sulfonamide] | 54% | 54% | 
20 | NCc1cccc(NS(=O)(=O)c2cc3ccccc3s2)c1 [compound 25, N-(3-(Aminomethyl)phenyl)benzo[b]thiophene-2-sulfonamide] | > 90% | > 90% | inhibition at 200 µM [3, 7]: 23%; IC50 [1]: 6 µM
21 | NNC(=O)c1ccncc1 [isoniazid, reference compound] |  |  | effect on synthesis of mycolic acids [4]: complete abolition; inhibition at 40 µM ([3]; Mycobacterium tuberculosis, H37RA, 48 h, read-out: growth inhibition): 38%
22 | O=C(O)c1ccc(NS(=O)(=O)/C=C/c2cccc(C(F)(F)F)c2)cc1 [compound 17, (E)-4-((2-(3-(Trifluoromethyl)phenyl)vinyl)sulfonamido)benzoic Acid] | 0% | 0% | 
23 | (E)-4-((2-(3-(Trifluoromethyl)phenyl)vinyl)sulfonamido)benzamide [compound 18] |  |  | Inh % (inhibition percentage of InhA) ([1]; 100 μM compound): 0%; % inhibition ([1]; supplementary CSV): 0%
24 | NCc1ccc(NS(=O)(=O)/C=C/c2cccc(C(F)(F)F)c2)cc1 [compound 14, (E)-N-(4-(Aminomethyl)phenyl)-2-(3-(trifluoromethyl)phenyl)ethene-1-sulfonamide] | > 90% | > 90% | inhibition at 200 µM [3, 7]: 40%; LE (ligand efficiency) [1]: 0.29; IC50 [1]: 9 µM; fold increase of the potency from compound 6 ([1]; compared to compound 6): 10 fold
25 | CC(=O)NCc1ccc(NS(=O)(=O)/C=C/c2cccc(C(F)(F)F)c2)cc1 [compound 16, (E)-N-(4-((2-(3-(Trifluoromethyl)phenyl)vinyl)sulfonamido)benzyl)acetamide] | 25% | 25% | 
26 | Cc1c(S(=O)(=O)Nc2cccc(CN)c2)sc2ccc(F)cc12 [compound 24, N-(3-(Aminomethyl)phenyl)-5-fluoro-3-methylbenzo[b]thiophene-2-sulfonamide] | > 90% | > 90% | inhibition at 200 µM [3, 7]: 38%; LE (ligand efficiency) [1]: 0.40; IC50 [1]: 0.25 µM
